Data: article PMC4703387, “Identification of the Calmodulin-Binding Domains of Fas Death Receptor” (PLoS ONE, 2016)
Read-outs that look alike come from different tables or passages of the source. Blank lines part the entries; values can stand above or below the substance they belong to. Where no end group is shown, it is not given here.

Experiments:
[1] = molecular target: T1, Ca^2+/CaM-N (Homo sapiens, UniProt P0DP23); experiment: NMR titration (2D 1H-15N HSQC) of isolated N-terminal lobe; type: binding; details: NMR HSQC titration, one-site model, 35°C, 50 mM Tris-d11 (pH 7.0), 100 mM NaCl, 5 mM CaCl2; 15N-Ca^2+/CaM-N 150 μM
T1 construct: ^15N-labled samples of the isolated Ca^2+/CaM-N and Ca^2+/CaM-C domains; made in house
Procedure: (§1) NMR data were collected at 35°C on a Bruker Avance II (700 MHz ^1H) spectrometer equipped with a cryogenic triple-resonance probe, processed with NMRPIPE [35] and analyzed with NMRVIEW [36] or CCPN Analysis. […] For signal assignments of the complexes, ^13C-, ^15N-, or ^13C-/^15N-labeled Ca^2+/CaM at ~400–500 μM was mixed with unlabeled Fas-Pep1 (in 100% DMSO-d6) or Fas-Pep2 at 1.5:1 peptide:Ca^2+/CaM. […] The backbone atom resonances of Ca^2+/CaM complexes with Fas-Pep1 and Fas-Pep2 were assigned using HNCA, HN(CO)CA, HNCACB, HNCO, HN(CO)CACB and ^15N-edited NOESY-HSQC and TOCSY-HSQC experiments. These experiments have been also collected on ^15N-, or ^13C-/^15N-labeled Fas-Pep2 in complex with unlabeled Ca^2+/CaM to confirm the α-helical character of Fas-Pep2 when bound to Ca^2+/CaM. […] Combined ^1H-^15N chemical shift changes were calculated as ΔδHN = [(ΔδH)^2+(ΔδN/5)^2]^1/2, where ΔδH and ΔδN are the ^1H and ^15N chemical shift changes, respectively. Kd values were calculated by non-linear least-square fitting algorithm in Origin software (OriginLab, Northampton, MA) using the equation: ΔδHN=ΔδHN^max((Kd+L0+P0)−((Kd+L0+P0)^2−4*P0*L0)^0.5)/(2*P0) where ΔδHN^max is the chemical shift change between complex and free protein, L0 total concentration of ligand, and P0 total concentration of protein. […]

[2] = molecular target: T2, Ca^2+/CaM (Homo sapiens, UniProt P0DP23); experiment: Isothermal titration calorimetry (ITC), Ca^2+/CaM titrated into peptide; type: binding; details: Ca^2+/CaM 450 μM into 25 μM Fas-Pep1 (25°C) or 195 μM into 17 μM Fas-Pep2 (35°C); 50 mM HEPES (pH 7.0), 100 mM NaCl, 5 mM CaCl2; single set of identical sites; three replicates typically
T2 construct: made in house
Procedure: Thermodynamic parameters of Ca^2+/CaM binding to Fas-Pep1 and Fas-Pep2 peptides were determined using an Auto-iTC200 microcalorimeter (Malvern Instruments). […] Heat of reaction of Ca^2+/CaM was measured over 19 injections at 25°C for Fas-Pep1 or 35°C for Fas-Pep2. Heat of dilution was measured by titrating Ca^2+/CaM into buffer. Data analysis was performed using the Microcal Origin package (ver. 8.1). Baseline corrections were performed by subtracting heat of dilution from the raw Ca^2+/CaM-peptide titration data. Binding curves were analyzed and dissociation constants (Kd) were determined by nonlinear least-square fitting of the baseline-corrected data. The formula used to fit the data as one binding site is: ΔQ(i)=Q(i)+(dVi/Vo)[(Q(i)+Q(i−1))/2]–Q(i–1) where ΔQ(i) is the heat released at i^th injection, Q(i) is the total heat content of the solution, dVi is injection volume, and Vo is total volume. Three replicate titration experiments were typically performed for each peptide.
Although it is recognized that the most frequent mechanism of CaM binding to target proteins involves the hydrophobic surfaces on the N- and C-terminal lobes,[23] electrostatic interactions also contribute to the formation and stabilization of CaM-protein complexes since CaM is acidic and CaM-binding motifs are often basic.[44, 45] The thermodynamic parameters of binding and the relative contribution of hydrophobic vs. electrostatic factors are often assessed by ITC methods, yielding various parameters such as dissociation constant (Kd), stoichiometry (n), enthalpy change (ΔH°) and entropy change (ΔS°). The thermodynamic parameters of Ca^2+/CaM binding to Fas-Pep1 and Fas-Pep2 were assessed by ITC.

[3] = molecular target: T3, Ca^2+/CaM-C (Homo sapiens, UniProt P0DP23); experiment: NMR titration (2D 1H-15N HSQC) of isolated C-terminal lobe; type: binding; details: NMR HSQC titration, one-site model, 35°C, 50 mM Tris-d11 (pH 7.0), 100 mM NaCl, 5 mM CaCl2; 15N-Ca^2+/CaM-C 150 μM
T3 construct: ^15N-labled samples of the isolated Ca^2+/CaM-N and Ca^2+/CaM-C domains; made in house
Procedure: as §1

[4] = molecular target: T2, Ca^2+/CaM; experiment: NMR titration (2D 1H-15N HSQC) of 15N-labeled Ca^2+/CaM with FasDD peptides; type: binding
Procedure: NMR data were collected at 35°C on a Bruker Avance II (700 MHz ^1H) spectrometer equipped with a cryogenic triple-resonance probe, processed with NMRPIPE [35] and analyzed with NMRVIEW [36] or CCPN Analysis. […] For signal assignments of the complexes, ^13C-, ^15N-, or ^13C-/^15N-labeled Ca^2+/CaM at ~400–500 μM was mixed with unlabeled Fas-Pep1 (in 100% DMSO-d6) or Fas-Pep2 at 1.5:1 peptide:Ca^2+/CaM. […] The backbone atom resonances of Ca^2+/CaM complexes with Fas-Pep1 and Fas-Pep2 were assigned using HNCA, HN(CO)CA, HNCACB, HNCO, HN(CO)CACB and ^15N-edited NOESY-HSQC and TOCSY-HSQC experiments. These experiments have been also collected on ^15N-, or ^13C-/^15N-labeled Fas-Pep2 in complex with unlabeled Ca^2+/CaM to confirm the α-helical character of Fas-Pep2 when bound to Ca^2+/CaM. The chemical shifts of Ca^2+/CaM-bound Fas-Pep2 were used to predict its order parameters and secondary structure content in TALOS+.[38] Combined ^1H-^15N chemical shift changes were calculated as ΔδHN = [(ΔδH)^2+(ΔδN/5)^2]^1/2, where ΔδH and ΔδN are the ^1H and ^15N chemical shift changes, respectively. Kd values were calculated by non-linear least-square fitting algorithm in Origin software (OriginLab, Northampton, MA) using the equation: ΔδHN=ΔδHN^max((Kd+L0+P0)−((Kd+L0+P0)^2−4*P0*L0)^0.5)/(2*P0) where ΔδHN^max is the chemical shift change between complex and free protein, L0 total concentration of ligand, and P0 total concentration of protein.
To gain insights into the molecular elements of Ca^2+/CaM–FasDD interaction and to identify the interaction interface, we have utilized NMR chemical shift perturbation (CSP) as detected in ^1H-^15N heteronuclear single quantum coherence (HSQC) spectra. These experiments not only allow for identification of residues involved in binding but can also provide information on the induced conformational changes within proteins. 2D ^1H-^15N HSQC data obtained for a uniformly ^15N-labeled Ca^2+/CaM upon titration with unlabeled Fas-Pep1 are shown in Fig 5. Addition of substoichiometric amounts of Fas-Pep1 (0.5:1 peptide:Ca^2+/CaM) led to a decrease in intensity for a significant number of ^1H-^15N resonances accompanied by appearance of several new signals, consistent with a slow exchange on the NMR scale between the free and bound forms of Ca^2+/CaM. A steady decrease in intensity for the original ^1H-^15N signals and increase in intensity of the new signals was clearly observed with further addition of Fas-Pep1. Spectral changes ceased upon completion of peptide titration at 1.5:1 Fas-Pep1:Ca^2+/CaM ratio when only the new set of signals was present (Fig 5). […]
Only residues 214–227 have been detected in the x-ray structure of Ca^2+/CaM bound to FasDD(214–238); no electron density has been detected for residues 228–238.[40] […]

[5] = molecular target: T2, Ca^2+/CaM; details: reference not given; earlier FasDD study of the authors: ref [32]; read-out: Kd to Ca^2+/CaM, full-length FasDD; cited from earlier work
Description: We have also shown that both lobes of Ca^2+/CaM are important for FasDD binding. […] Our attempt to identify the interaction regions by ... || To identify the Ca^2+/CaM-binding regions in large proteins is not a simple task. To predict the Ca^2+/CaM-binding site, a web-based tool is often used to provide favorable scores based on multiple criteria including hydropathy, α-helical propensity, hydrophobic residue content, residue charge, residue weight, helical class and occurrence of particular residues.[39] However, this method can still provide biased results.

Kd [1]: ~268 µM | Kd [2]: 0.3 µM | Kd [3]: 76 µM
Substance: SDVDLSKYITTIAGVMTLSQVKGFVRKNGVN [Fas-Pep1]

NMR exchange regime with Ca^2+/CaM ([4]; 1H-15N HSQC, 15N-Ca^2+/CaM 100–150 μM, 35°C, pH 7.0): fast exchange
Substance: MTLSQVKGFVRKNGV [FasDD(224–238), synthetic FasDD peptide spanning residues 224–238; …]
binding to Ca^2+/CaM by CSPs ([4]; 1H-15N HSQC titration, 15N-Ca^2+/CaM 100 μM, 35°C, pH 7.0): Numerous ^1H-^15N signals exhibited significant CSPs in the HSQC spectra (S7 Fig), indicating direct binding | lobe preference on Ca^2+/CaM ([4]; 1H-15N HSQC, 15N-Ca^2+/CaM 100 μM): appears to bind to the C-terminal domain of Ca^2+/CaM

Substance: FasDD: intracellular death domain of Fas
Kd [5]: ~2 µM
